Source: patent US20160115540A1, “PRODRUGS AND DRUGS” (Biogen MA Inc., priority 2013, published 2016)
“Also recorded” adds a separate entry of the source. Structures can show the parent of a compound that is named as a salt.

Experiments:
whole blood = assay: Transcriptional profiling on Affymetrix GeneChips, single dose, naïve mice: whole blood; assay type: in vivo, C57BL/6 mice; conditions: for Number of differentially expressed genes identified: Whole blood: Naïve, Single Dose
Experimental: Treated mice were sacrificed at 2, 7, or 12 hours. Tissues (liver, spleen, kidney, jejunum, cortex, hippocampus, striatum and whole blood) were collected and analyzed by transcriptional profiling on mouse Affymetrix GeneChips. […] While the experiments were performed in mice, the human homolog of the identified murine gene transcript is included in the tables. Additional genes that were identified in the study are provided in APPENDIX A, filed herewith on even date, the contents of which are herein incorporated by reference in their entirety. Additional studies are described in the Examples, and genes identified in the studies are provided in […], and APPENDIX E filed herewith on even date, the contents of each of which are herein incorporated by reference in their entirety. […] Tissues (liver, spleen, kidney, jejunum, cortex, hippocampus, striatum and whole blood) were collected and analyzed by transcriptional profiling on mouse Affymetrix GeneChips. […] Animals were exposed to CO2 and whole blood collected via cardiac puncture. Two 100 μl aliquots of whole blood were collected in 1.5 mL microcentrifuge tubes and snap frozen in liquid nitrogen. Peripheral (liver, spleen, kidney and jejunum) and CNS brain (cerebellum, hippocampus, striatum and cortex) tissues were harvested and snap frozen in liquid nitrogen, with special care taken to collect tissues of similar size and from the same location. All samples were stored at -80° C. until RNA extraction was conducted. 50 ul of snap frozen mouse blood was re-suspended in lysis buffer with proteinase K and arrayed into deep-well plates for automated RNA extraction. RNA extractions were completed on […] (Beckman Coulter, Indianapolis, Ind.) using Agencourt RNAdvance Blood kit (Part number A35604) according to the manufacturer's specifications. RNA integrity was assessed using the HT RNA reagent kit (Part number 760410, Caliper Life Sciences, Hopkinton, Mass.) using a LabChip GX (PerkinElmer, Waltham, Mass.). RNA samples with a RQS score of >8.0 were considered high quality for downstream microarray processing. […] Two micrograms of biotin labeled […] probe were hybridized to Affymetrix GeneChip Affymetrix HT_MG-430_PM plate arrays with modified conditions as described in […] et al. Washing and staining of the hybridized arrays were completed as described in the GeneChip Expression analysis technical manual for HT plate arrays using the Genechip® Array Station (Affymetrix, Santa Clara, Calif.) with modifications as described in […] et al. The processed GeneChip® plate arrays were scanned using GeneTitan scanner (Affymetrix, Santa Clara, Calif.). Affymetrix scans were subject to quality control (QC) measures. These tests included a visual inspection of the distribution of raw signal intensities and an assessment of RNA degradation, relative log expression (RLE), and normalized unsealed standard error (NUSE). All sample scans that passed these QC metrics were included in the analysis. All CEL files were subjected to GC-content-based Robust Multi-array Average (GCRMA) normalization (version 2.20.0) (Irizarry R A, et al. Nucleic Acids Res 2003; 31:e15; Li C, et al. Genome Biol 2001; 2:[…]0032). […] Stat Appl Genet Mol Biol 2004; 3:Article3). […] Springer Science+Business Media 2005).

NK cells = assay: Flow cytometry of NK cell surface markers (MFI) in naïve mice; assay type: in vivo, C57Bl/6 mice; conditions: 12 hr after 100 mpk PO
Description: Protein expression is quantified by mean fluorescent intensity (MFI).
12-hours post-dose, mice were sacrificed and blood, spleen, and inguinal lymph node were collected for analysis by flow cytometry.
Transcriptional differences in NK cell markers were confirmed at the protein level by flow cytometry. […] Protein expression was quantified by mean fluorescent intensity (MFI). […] 12-hours post-dose, mice were sacrificed and blood, spleen, and inguinal lymph node (iLN) were collected for analysis by flow cytometry.

[1] = 100 mpk, vs Vehicle, 2 h after last dosing
[2] = 100 mpk, vs Vehicle, 7 h after last dosing
[3] = 100 mpk, vs Vehicle, 12 h after last dosing
[4] = whole blood, 100MMF-vs-Veh, 12 h
[5] = whole blood, 100DMF-vs-Veh, 2 h
[6] = whole blood, 100DMF-vs-Veh, 12 h

COC(=O)/C=C/C(=O)O [MMF, monomethyl fumarate]
Number of genes, DMF Only / MMF Only (whole blood; Blood): 2
Bcl3 (1418133_PM_at) differential expression (whole blood; Blood, 2 hr): −1.23
Sdc1 (1415943_PM_at) differential expression (whole blood; Blood, 12 hr): −1.96
Number of differentially expressed genes identified: Whole blood (whole blood; [1]): 1
Number of differentially expressed genes identified: Whole blood (whole blood; [2]): 0
Number of differentially expressed genes identified: Whole blood (whole blood; [3]): 2
FC Bcl3 (1418133_PM_at) (whole blood; whole blood, 100MMF-vs-Veh, 2 h): −1.67
FC 0710007G10Rik /// Tmem175 (1435109_PM_at) (whole blood; [4]): −1.52
FC Sdc1 (1415943_PM_at) (whole blood; [4]): −1.96
Bcl3 mRNA fold change vs vehicle (whole blood; whole blood, 2 hr after single 100 mg/kg oral dose): −1.23
Sdc1 mRNA fold change vs vehicle (whole blood; whole blood, 12 hr after single 100 mg/kg oral dose): −1.96

COC(=O)/C=C/C(=O)OC [DMF, dimethyl fumarate]
Klrb1b (NK1.1) protein expression change, MFI difference compared to MMF 12 hr or vehicle control (NK cells; NK cells): differentially expressed; also recorded: Significant
Klrc1 (Nkg2a) protein expression change, MFI difference compared to MMF 12 hr or vehicle control (NK cells; NK cells): differentially expressed; also recorded: Significant
Klrd1 (CD94) protein expression change, MFI difference compared to MMF 12 hr or vehicle control (NK cells; NK cells): differentially expressed
Klrk1 (NKG2d) protein expression change, MFI difference compared to MMF 12 hr or vehicle control (NK cells; NK cells): differentially expressed; also recorded: Significant
Ncr1 (NKp46) protein expression change, MFI difference compared to MMF 12 hr or vehicle control (NK cells; NK cells): Not significant
Effects on NK cells in the spleen (NK cells; naïve mice): exerts effects on NK cells in the spleen
Number of genes, DMF Only / MMF Only (whole blood; Blood): 6
Cpsf2 (1420937_PM_at) differential expression (whole blood; Blood, 2 hr): −1.65
Gzma (1417898_PM_a_at) differential expression (whole blood; Blood, 12 hr): 1.92
Klrb1b (1445399_PM_at) differential expression (whole blood; Blood, 12 hr): 1.65
Klrc1 (1425005_PM_at) differential expression (whole blood; Blood, 12 hr): 1.85
Klre1 (1458642_PM_at) differential expression (whole blood; Blood, 12 hr): 1.85
Ncr1 (1422089_PM_at) differential expression (whole blood; Blood, 12 hr): 1.86
Number of differentially expressed genes identified: Whole blood (whole blood; 100 mpk DMF-vs-100 mpk MMF, 2 h after last dosing): 0
Number of differentially expressed genes identified: Whole blood (whole blood; 100 mpk DMF-vs-100 mpk MMF, 7 h after last dosing): 1
Number of differentially expressed genes identified: Whole blood (whole blood; 100 mpk DMF-vs-100 mpk MMF, 12 h after last dosing): 0
Number of differentially expressed genes identified: Whole blood (whole blood; [1]): 2
Number of differentially expressed genes identified: Whole blood (whole blood; [2]): 0
Number of differentially expressed genes identified: Whole blood (whole blood; [3]): 5
differentially expressed genes (whole blood; whole blood, 100DMF-vs-100MMF, 2 h): None
FC Lman1 (1444037_PM_at) (whole blood; whole blood, 100DMF-vs-100MMF, 7 h): 1.63
differentially expressed genes (whole blood; whole blood, 100DMF-vs-100MMF, 12 h): None
FC Cpsf2 (1420937_PM_at) (whole blood; [5]): −1.65
FC probe 1441373_PM_at (whole blood; [5]): −1.70
FC Gzma (1417898_PM_a_at) (whole blood; [6]): 1.92
FC Klrb1b (1445399_PM_at) (whole blood; [6]): 1.65
FC Klrc1 (1425005_PM_at) (whole blood; [6]): 1.85
FC Klre1 (1458642_PM_at) (whole blood; [6]): 1.85
FC Ncr1 (1422089_PM_at) (whole blood; [6]): 1.86
differentially expressed genes (whole blood; whole blood, 100DMF-vs-Veh, 7 h): None
